Test results published in patent US11234971B2, “Methods of treating cancer comprising administration of a glucocorticoid receptor modulator and a cancer chemotherapy agent” (Corcept Therapeutics Incorporated, priority 2018, dated 2022).

Legend:
[1] = test system: advanced or metastatic solid tumors; test: Tumor assessments per RECIST 1.1 in study NCT02762981; assay type: in vivo, human; details: of 21 patients with paired samples; relacorilant plus nab-paclitaxel
Experimental: In the following, reference is made to RECIST and RECIST 1.1, which refer to the Response Evaluation Criteria for Solid Tumors. These criteria, first promulgated in 2000, and updated in 2009 (as RECIST 1.1.), are generally accepted, and nearly universally used criteria for clinical trials of therapies for solid tumors. See, e.g., Schwartz et al., Eur J Cancer. July; 62: 132-137 (2016). The study described in this Example was performed and evaluated according to these criteria. Detection of the ovarian cancer marker CA-125 was also used, per Gynecologic Cancer Intergroup (GCIG) criteria, in evaluating the patient samples.
Patients Patients with solid tumors were enrolled in study NCT02762981, a phase 1/2 study of CORT125134 (aka relacorilant) in combination with nab-paclitaxel. The patients were all 18 years of age or older, with advanced or metastatic solid tumors who have disease progression; all patients gave informed consent to participate in this study.
Patients received one or more cycles of treatments as describe schematically in FIGS. 1 and 2. The treatment schedules of each 28-day cycle are shown in those figures. Patients in Segment I of the study received continuous dosing of relacorilant (“CORT125134”); that is, relacorilant was administered to the patients on a daily basis. […]

[2] = test system: GR-controlled genes; test: Whole blood mRNA expression (NanoString) in cancer patients of study NCT02762981, baseline vs C1D15; assay type: in vivo, human; details: for expression levels of COX2, DUSP1, GSK3b, MCL-1, PIK3CG and RGS-2 (mRNA): 40 cancer patients (FIG. 5B); for genes downregulated in whole blood, baseline to C1D15: 800-gene panel, relacorilant+nab-paclitaxel; for enrichment of genes shared in the sets induced by prednisone and suppressed by relacorilant / genes shared in the sets induced by prednisone and suppressed by relacorilant: top 200 genes each
Experimental: Blood was collected at baseline, prior to administration of relacorilant or nab-paclitaxel. Blood was also drawn in the morning, pre-dose, on cycle 1, day 15. Blood (in the amount of 2.5 milliLiters (mL)) was drawn into a PAXGene blood RNA tube (Qiagen) using a butterfly needle. The tube was sealed and gently inverted 10 times. The tube was frozen in dry ice and stored at −80° C. until RNA extraction.
Paired baseline and cycle 1, day 15 (C1D15) specimens were thawed and processed in the same batch. RNA was isolated using the PAXgene Blood RNA kit (Qiagen) using the protocol recommended by the manufacturer. RNA yield was quantified using a NanoDrop ND-2000 spectrophotometer (ThermoFisher Scientific). RNA was assessed using a custom 33-gene panel after mRNA sample preparation and hybridization using NanoString nCounter XT Assay, following the operation and maintenance instructions for the NanoString prep station and digital analyzer. Specific RNA transcripts were quantified using a Nanostring nCounter FLEX instrument (NanoString Technologies) and analyzed using nSolver 3.0. (Nanostring Technologies, Seattle Wash., USA).
Housekeeping gene pairwise correlations were determined using nSolver 3.0 (NanoString Technologies). Test genes were normalized to the housekeeping genes HPRT1, PPIB, TRAP1, EEF1A1, and TBP. Change from baseline was calculated using the RNA counts at baseline and cycle 1, day 15 as follows: Change from Baseline=(C1D15−baseline)/(baseline) Results Housekeeping Genes Selection
Calculations For FIG. 6, the normalized counts of 10 GR-controlled genes were averaged. Change from baseline of these averaged values was calculated per patient using the formula: Percent change from baseline=((average value at C1D15)−(average value at baseline))/(average value at baseline)*100Gene set enrichment statistics were calculated using the program available at the URL: Nemates.org/MA/progs/overlap_stats_prog.html
RNA isolation and quantification RNA was assessed using a custom 800-gene panel after mRNA sample preparation and hybridization using NanoString nCounter Assay, following the operation and maintenance instructions for the NanoString prep station and digital analyzer. The 800 gene panel was comprised of the Nanostring 10360™ panel plus the following 10 custom probes:
Data normalization and analysis Housekeeping gene pairwise correlations were determined using advanced analysis in nSolver 3.0 (NanoString Technologies). Test genes were normalized to the housekeeping genes selected by geNORM. […]

[3] = patients with progressive disease

SMILES: Cn1cc(S(=O)(=O)N2CCC3=Cc4c(cnn4-c4ccc(F)cc4)C[C@]3(C(=O)c3cc(C(F)(F)F)ccn3)C2)cn1 [relacorilant, (R)-(1-(4-fluorophenyl)-6-((1-methyl-1H-pyrazol-4-yl)sulfonyl)-4,4a,5,6,7,8-hexahydro-1H-pyrazolo[3,4-g]isoquinolin-4a-yl)(4-(trifluoromethyl)pyridin-2-yl)methanone]
- patients who experienced benefit from therapy (SD, PR or CR) [1]: 11 patients
- patients who experienced progressive disease [1]: 10 patients
- expression levels of COX2, DUSP1, GSK3b, MCL-1, PIK3CG, RGS-2, SGK1 and STAT3 (mRNA) ([2]; 21 cancer patients (FIG. 5A), patients who derived benefit from relacorilant+nab-paclitaxel): decreased as compared to baseline
- expression levels of COX2, DUSP1, GSK3b, MCL-1, PIK3CG, RGS-2, SGK1 (mRNA) ([2]; 21 cancer patients (FIG. 5A), patients whose cancer progressed): did not exhibit decreased levels
- expression levels of COX2, DUSP1, GSK3b, MCL-1, PIK3CG and RGS-2 (mRNA) ([2]; patients who derived benefit from relacorilant+nab-paclitaxel): decreased as compared to baseline
- expression levels of COX2, DUSP1, GSK3b, MCL-1, PIK3CG and RGS-2 (mRNA) ([2]; patients whose cancer progressed): did not exhibit decreased levels
- genes downregulated in whole blood, baseline to C1D15 ([2]; PD patients): 30 genes
- genes downregulated in whole blood, baseline to C1D15 ([2]; SD/PR/CR patients): 92 genes
- normalized DUSP1 mRNA counts, baseline vs cycle 1 day 15 ([2]; all patients, relacorilant + nab-paclitaxel, paired t-test p=0.065): not significantly different
- normalized DUSP1 mRNA counts, baseline vs cycle 1 day 15 ([2]; patients experiencing benefit (SD, PR, CR), relacorilant + nab-paclitaxel, paired t-test p=0.015): significant decrease
- decrease in DUSP1 counts, baseline vs cycle 1 day 15 ([2]; patients with progressive disease, relacorilant + nab-paclitaxel): not observed
- enrichment of genes shared in the sets induced by prednisone and suppressed by relacorilant ([2]; patients who benefited): 2.2 fold
- genes shared in the sets induced by prednisone and suppressed by relacorilant ([2]; patients who benefited, p=3×10^−30): 116 genes
- enrichment of genes shared in the sets induced by prednisone and suppressed by relacorilant [2, 3]: 0.7 fold
- genes shared in the sets induced by prednisone and suppressed by relacorilant [2, 3]: 38 genes
